# According to article PMC7098856 (British Journal of Clinical Pharmacology, 2020):
# Values joined by “and” are separate entries in the source; they are usually repeats but may differ in a detail not shown here. Identical values can stand only once. Like-named read-outs stand apart in the source and are kept apart here.
# Columns and labels:
# [1] = assay type: in vivo, patients with advanced solid tumours; conditions: for CL/F: geometric mean (CV%)
# [2] = assay type: in vivo, patients with advanced solid tumours; conditions: for CL/F / variability of talazoparib Cmax: Arm B; for CL/F: geometric mean (CV%)
# [3] = Safety and tolerability; assay type: in vivo, patients with advanced solid tumours; conditions: both arms; talazoparib alone or together with itraconazole or rifampicin
# [4] = Safety and tolerability; assay type: in vivo, patients with advanced solid tumours; conditions: whole Arm B
# [5] = Phase 1 dose escalation study; cited from earlier work
# [6] = cited from earlier work
# [7] = population PK, cited from earlier work
# [8] = system: P‐glycoprotein (P‐gp); conditions: in vitro; cited from earlier work
# [9] = system: breast cancer resistance protein; conditions: in vitro; cited from earlier work
# [10] = cited from earlier work; remark: listed apart in the source
# [11] = cited from earlier work; remark: listed apart in the source
# [12] = system: enzymes or transporters; conditions: at therapeutic exposures; cited from earlier work
# [13] = coadministration of itraconazole
# [14] = talazoparib + itraconazole vs talazoparib alone
# [15] = talazoparib + rifampicin vs talazoparib alone
# [16] = talazoparib + rifampicin vs talazoparib alone, listed as talazoparib
# [17] = based on urinary excretion data, single 1 mg oral dose
compound,measurement,setting,value
"Cn1ncnc1[C@H]1c2n[nH]c(=O)c3cc(F)cc(c23)N[C@@H]1c1ccc(F)cc1 [Talazoparib, talazoparib]","AUClast, adjusted geometric mean","[1]; Arm A talazoparib alone (reference), mixed effects model","98,532.3 h pg/mL"
same,CL/F,"[1]; Arm A, single oral 0.5 mg talazoparib + itraconazole",12 3.3 (36.0) L/h
same,Tmax,"[1]; Arm A, single oral 0.5 mg talazoparib + itraconazole, median (range)",15 1.0 (0.5–4.0) h
same,CL/F,"[1]; Arm A, single oral 0.5 mg talazoparib alone",18 4.6 (42.0) L/h
same,increase in talazoparib AUCinf relative to talazoparib alone,[1]; [13],~ 56% and 56%
same,increase in talazoparib Cmax relative to talazoparib alone,[1]; [13],~ 40% and 40%
same,AUC(0-inf),"[1]; human, plasma, oral, 0.5 mg",110 ng·h/mL
same,Cmax,"[1]; human, plasma, oral, 0.5 mg",2.09 ng/mL
same,Cmax,"[1]; human, plasma, po, 0.5 mg",2.09 ng/mL
same,Vd/F,"[1]; human, plasma, po, 0.5 mg",645 L
same,half-life,"[1]; human, plasma, po, 0.5 mg",101 h
same,"AUCinf geometric mean ratio (test/reference), % (90% CI)",[1]; [14],"156.2 (137.6, 177.4) %"
same,"AUClast geometric mean ratio (test/reference), % (90% CI)",[1]; [14],"150.7 (136.5, 166.4) %"
same,"Cmax geometric mean ratio (test/reference), % (90% CI)",[1]; [14],"139.9 (113.3, 172.9) %"
same,CL/F,[2]; single oral 1.0 mg talazoparib + rifampicin,12 5.2 (36.0) L/h
same,CL/F,[2]; single oral 1.0 mg talazoparib alone,17 4.8 (34.0) L/h
same,variability of talazoparib Cmax,[2]; talazoparib alone,53%
same,variability of talazoparib Cmax,[2]; with rifampicin administration,71%
same,increase in talazoparib Cmax relative to talazoparib alone,[2]; coadministration of rifampicin,approximately 37%
same,Cmax,"[2]; human, plasma, oral, 1 mg",6.01 ng/mL
same,Cmax,"[2]; human, plasma, po, 1 mg",6.01 ng/mL
same,Tmax,"[2]; human, plasma, po, 1 mg",1 h
same,Vd/F,"[2]; human, plasma, po, 1 mg",624 L
same,half-life,"[2]; human, plasma, po, 1 mg",92.1 h
same,"AUCinf geometric mean ratio (test/reference), % (90% CI)",[2]; [15],"102.0 (94.0, 110.7) %"
same,"AUClast geometric mean ratio (test/reference), % (90% CI)",[2]; [15],"105.4 (98.0, 113.2) %"
same,"Cmax geometric mean ratio (test/reference), % (90% CI)",[2]; [15],"136.6 (103.2, 180.9) %"
same,"AUCinf geometric mean ratio (test/reference), % (90% CI)",[2]; [16],102.0%
same,"Cmax geometric mean ratio (test/reference), % (90% CI)",[2]; [16],136.6%
same,overall tolerability,[3],generally well tolerated
same,patients who discontinued treatment due to AEs,[4],11.8%
same,patients who discontinued treatment due to study-drug related AE,[4],5.9%
same,maximum tolerated dose (MTD),[5],1 mg once daily (QD)
same,absolute bioavailability,[6]; [17],at least 54.6%
same,fraction absorbed,[6]; [17],at least 68.7%
same,hepatic metabolism,[6],minimal
same,major elimination pathway,[6],renal excretion of unchanged talazoparib
same,increase in relative bioavailability of talazoparib by potent P-gp inhibitors,[7]; data pooled from multiple clinical trials,45%
same,increase in relative bioavailability of talazoparib by potent P-gp inhibitors,"[7]; first-in-human, Phase 2 and 3 studies",44.7%
same,substrate for P-gp,[8],substrate
same,substrate for breast cancer resistance protein,[9],substrate
same,patients who permanently discontinued treatment due to a haematological AE,[10],1.4%
same,progression-free survival vs physician's choice of chemotherapy,[10],statistically significant and clinically meaningful improvement
same,patients with Grade 3–4 AEs (primarily haematological),[10]; patients on talazoparib,55%
same,effect of food on talazoparib AUCinf,[11],no effect
same,effect of food on talazoparib Cmax,[11],reduced
same,induction or inhibition of enzymes or transporters,[12],does not markedly induce or inhibit
